Measured values from patent publication US4468387A, “Pesticidal N-sulfonyl N'-oxalate phosphorodiamido(di)thioates” (Rohm and Haas Company, priority 1982, dated 1984).

Key:
Assay type in all cases: in vivo
[1] = tested on: Two-spotted spider mite (Tetranychus urticae); test: mite test, sprayed infested bean leaf discs (two-spotted spider mite); conditions: 600 ppm; leaf disc spray; percent kill after 24 hours
Source text: (§1) A test solution containing 600 ppm of test compound can be made by dissolving the test compound in a solvent (acetone:methanol, 1:1), adding surfactant and then water to give an acetone:methanol:water system of 10:10:80. A 1:1 mixture of an alkylarylpolyetheralcohol (commercially available under the trademark Triton X-155) and a modified phthalic glycerol alkyl resin (commercially available under the trademark Triton B-1956) can be utilized at the equivalent of one ounce per 100 gallons of test solution and a surfactant.
For the mite test, infested bean (Phaseolus limeanus) leaf discs (1.25 inches in diameter) containing about 50 mites are placed in a Petri dish lid on a moistened piece of cotton. The leaves are then sprayed with the test solution using a rotating turntable. They are held for 24 hours and then the percent kill is determined.

[2] = tested on: Southern armyworm (Spodoptera eridania); test: armyworm test, sprayed detached bean leaves, third instar southern armyworm larvae; conditions: 600 ppm, leaf spray, percent kill after 48 hours
Source text: as §1
For the armyworm test, detached bean leaves on pieces of moistened filter paper are sprayed as above for the mite test in similar dishes and allowed to dry. The dishes are infested with 10 third instar southern armyworm larvae. The dishes are covered. After holding for 48 hours, the percent kill is obtained.

[3] = tested on: Southern root-knot nematode (Meloidogyne incognita); test: nematode test, inoculated soil, cucumber root knots; conditions: about 30 ppm by volume in soil; knots on cucumber roots after about 23 days
Source text: as §1
For the nematode test, soil is homogeneously inoculated with a macerated blend of tomato roots heavily knotted with the root knot nematode. Ten milliliters of the test solution are added to 200 milliliters of the inoculated soil in a 16 oz. jar to give a concentration by volume of about 30 ppm. The jar is then shaken to insure thorough mixing, immediately uncapped, and allowed to air for 24 hours. The soil is then placed into a 3 inch plastic pot after which time 3 cucumber (Cucumis sativus) seeds are planted. About 23 days thereafter, the cucumber plants are removed from the soil and the root system examined for the presence of knots. A total of 15 knots or less is considered as a measure of control.

| Structure (SMILES) | Insecticidal Screening Results, % Control, Two-Spotted Mite [1] [%] | Insecticidal Screening Results, % Control, Southern Armyworm [2] [%] | Nema (control of root-knot nematode) [3] |
| --- | --- | --- | --- |
| CCC(C)SP(=O)(N(C)C(=O)C(=O)OC(C)C)N(C)S(C)(=O)=O (stereo not drawn) [Example 1, N-Methanesulfonyl N,N'-dimethyl N'-[(1-methylethoxycarbonyl)carbonyl] S-(1-methylpropyl) phosphorodiamidothioate] | 100 | 100 | + (A total of 15 knots or less is considered as a measure of control) |
| CCC(C)SP(=O)(N(C)C(=O)C(=O)OC)N(C)S(C)(=O)=O (stereo not drawn) [Example 2, N-Methanesulfonyl N'-[(methoxycarbonyl)carbonyl] N,N'-dimethyl S-(1-methylpropyl) phosphorodiamidothioate] | 100 | 100 | + (A total of 15 knots or less is considered as a measure of control) |
| CCC(C)SP(=O)(N(C)C(=O)C(=O)OC(C)(C)C)N(C)S(C)(=O)=O (stereo not drawn) [Example 3, N-Methanesulfonyl N,N'-dimethyl N'-[(1,1-dimethylethoxy)carbonylcarbonyl] S-(1-methylpropyl) phosphorodiamidothioate] | 100 | 100 | + (A total of 15 knots or less is considered as a measure of control) |
| CCC(C)SP(=O)(N(C)C(=O)C(=O)OC1CCCCC1)N(C)S(C)(=O)=O (stereo not drawn) [Example 4, N'-Cyclohexyloxycarbonylcarbonyl N-methanesulfonyl N,N'-dimethyl S-(1-methylpropyl) phosphorodiamidothioate] | 100 | 30 | + (A total of 15 knots or less is considered as a measure of control) |
| CCC(C)SP(=O)(N(C)C(=O)C(=O)Oc1ccccc1)N(C)S(C)(=O)=O (stereo not drawn) [Example 6, N-Methanesulfonyl N,N'-dimethyl S-(1-methylpropyl) N'-phenoxycarbonylcarbonyl phosphorodiamidothioate] | 100 | 100 | + (A total of 15 knots or less is considered as a measure of control) |
| CCCSC(=O)C(=O)N(C)P(=O)(SC(C)CC)N(C)S(C)(=O)=O (stereo not drawn) [Example 7, N-Methanesulfonyl N,N'-dimethyl S-(1-methylpropyl) N'-(propylthio)carbonylcarbonyl phosphorodiamidothioate] | 100 | 100 | + (A total of 15 knots or less is considered as a measure of control) |
| CCC(C)SP(=O)(N(C)C(=O)C(=O)Oc1ccc(SC)cc1)N(C)S(C)(=O)=O (stereo not drawn) [Example 8, N-Methanesulfonyl N,N'-dimethyl S-(1-methylpropyl N'-(4-methylthiophenoxy)carbonylcarbonyl phosphorodiamidothioate] | 100 | 100 | + (A total of 15 knots or less is considered as a measure of control) |
| CCC(C)OC(=O)C(=O)N(C)P(=O)(SC(C)CC)N(C)S(C)(=O)=O (stereo not drawn) [Example 9, N-Methanesulfonyl N,N'-dimethyl S-(1-methylpropyl) N'-(1-methylpropyloxy)carbonylcarbonyl phosphorodiamidothioate] | 100 | 100 | + (A total of 15 knots or less is considered as a measure of control) |
| CCC(C)SP(=O)(N(C)C(=O)C(=O)OCCCl)N(C)S(C)(=O)=O (stereo not drawn) [Example 10, N'-(2-Chloroethoxy)carbonylcarbonyl N-methanesulfonyl N,N'-dimethyl S-(1-methylpropyl) phosphorodiamidothioate] | 100 | 100 | + (A total of 15 knots or less is considered as a measure of control) |
| CCSCCOC(=O)C(=O)N(C)P(=O)(SC(C)CC)N(C)S(C)(=O)=O (stereo not drawn) [Example 11, N'-(2-Ethylthioethoxy)carbonylcarbonyl N-methanesulfonyl N,N'-dimethyl S-(1-methylpropyl) phosphorodiamidothioate] | 100 | 100 | + (A total of 15 knots or less is considered as a measure of control) |
| CCC(C)SP(=O)(N(C)C(=O)C(=O)SC1CCCCC1)N(C)S(C)(=O)=O (stereo not drawn) [Example 12, N'-(Cyclohexylthio)carbonylcarbonyl N-methansulfonyl N,N'-dimethyl S-(1-methylpropyl) phosphorodiamidothioate] | 100 | 100 | + (A total of 15 knots or less is considered as a measure of control) |
| CCC(C)SP(=O)(N(C)C(=O)C(=O)OCCOC)N(C)S(C)(=O)=O (stereo not drawn) [Example 13, N-Methanesulfonyl N'-(2-methoxyethoxy)carbonylcarbonyl N,N'-dimethyl S-(1-methylpropyl) phosphorodiamidothioate] | 100 | 100 | + (A total of 15 knots or less is considered as a measure of control) |
| CCC(C)SP(=O)(N(C)C(=O)C(=O)OCc1ccccc1)N(C)S(C)(=O)=O (stereo not drawn) [Example 14, N'-Benzyloxycarbonylcarbonyl N-methanesulfonyl N,N'-dimethyl S-(1-methylpropyl) phosphorodiamidothioate] | 100 | 100 | + (A total of 15 knots or less is considered as a measure of control) |
